Paper PMC6615598, “Novel antibiotics effective against gram-positive and -negative multi-resistant bacteria with limited resistance” (PLoS Biology, 2019)
Values after ≈ are worked out from the molar mass of the structure shown. Values joined by “and” are separate entries in the source; they are usually repeats but may differ in a detail not shown here. Identical values can stand only once.

How the values were obtained:
S. aureus Mu3 (MRSA) = assay: microbe, parasite or virus in culture
Description: (§1) (10−4 M final concentrations). At selected time intervals, 100 μl of reaction mixture was collected, quenched by 200 μl 95% EtOH, and adjusted at pH 2 to prevent peptide adsorption to serum proteins. […] Supernatants were analyzed by RP-HPLC on an Xbridge C18 column with a linear gradient of water, 0.08% TFA, and acetonitrile with 1% TFA. HPLC peak areas were used to calculate the percentages of intact compound remaining at the various time points. MIC and MBC values were determined in triplicate in many ESKAPE clinical isolates, including a dozen MDR S. aureus, by the broth microdilution method. Peptidomimetics and antibiotics were assayed in a concentration range of 1 to 128 μM. The bacterial inoculum (5 × 10^5 colony-forming units [CFUs]/well) was prepared in MHB or CAMHB (150 μl). A Biotek Synergy 2 spectrophotometer was used to record the results after 18–20 h incubation at 35°C (±2°C). […] After every hour of culture for 4 h, serial dilutions were plated on BHI plates and incubated overnight at 37°C, and then the CFUs were counted and expressed as log CFU/ml. Phosphate-buffered saline (PBS)-exposed S. aureus MRSA was included as a control.

S. aureus Newman = assay: microbe, parasite or virus in culture
Description: as §1

E. faecium Aus0004 = conditions: Aus0004
Description: as §1

[1] = Stability in human serum (half-life); type: in vitro ADME; conditions: 25% human serum, pre-incubated 15 min at 37°C, peptide 10^−4 M, RP-HPLC peak areas, mean of biological triplicates
Description: as §1
(§2) Supplementary file pbio.3000337.s013.docx: S7 Table Peptide half-lives in human and mouse sera. […] Peptide amounts and half-lives were determined by HPLC. Experiments were conducted on 25% human or mouse sera. Values are shown in minutes. The mean values correspond to biological triplicates. HPLC, high pressure liquid chromatography. (DOCX) Click here for additional data file.

[2] = Stability in mouse serum (half-life); type: in vitro ADME; conditions: 25% mouse serum, pre-incubated 15 min at 37°C, peptide 10^−4 M, RP-HPLC peak areas, mean of biological triplicates
Description: as §1, §2

S. aureus MRSA = assay: Cutaneous abscess mouse model (lesion size, CFU); type: in vivo, mice; conditions: cutaneous abscesses from MRSA in mice; IV 24 h post-infection, 1.5 mg.kg-1; individual values
Description: (§3) For the cutaneous abscess model, the mice were randomly divided into 5 sets. The mice were anesthetized with isoflurane, their dorsal fur shaved, and their skin disinfected with 70% ethanol. An overnight culture of S. aureus MRSA or P. aeruginosa LESB58 was washed with 0.9% NaCl, and then a subcutaneous injection of 2 × 10^9 CFUs and an equal amount of sterile Cytodex microcarrier beads (20 mg.ml^−1, Sigma) for S. aureus MRSA, or 10^8 CFUs for P. aeruginosa were injected into the shaved area. […] Mice were monitored every day and then euthanized with CO2 on Day 6 or on Day 3. Abscesses were excised, measured, and homogenized in PBS using an Ultra-Turax. Serial dilutions of the samples were plated on BHI (MRSA) or 2YT medium (LESB58) plates and then incubated overnight at 37°C. Afterward, the CFUs were counted and expressed as log CFU/ml. Dermonecrosis areas were calculated according to the formula π × L × W. ATP levels were determined with an ATP assay kit (Promega) according to manufacturer instructions on sets of 5 colonies harboring the SCV phenotype, and sets of 5 colonies harboring a normal phenotype, after growth on BHI plates.

S. aureus = assay: Intracellular ATP levels of SCV versus normal colonies from skin abscesses; type: cell-based; conditions: individual values
Description: as §3

S. aureus N315 (MRSA) = assay: microbe, parasite or virus in culture; conditions: Staphylococcus aureus, MRSA
Description: as §1

MRSA (Mu3) [3] = assay: microbe, parasite or virus in culture
Description: (§4) For 15 d in MHB, MICs were determined daily for each pseudopeptide and their antibiotic controls. This was done using cells from the well in which the compound concentration was one-half of the MIC (1/2MIC). For each compound, the 1/2MIC well from the previous day’s MIC assay plate was re-suspended and the bacteria grown to a density of about 10^8 cells ml−1. The suspension was diluted in MHB or CAMHB (10^6 cells/ml) and then used to determine the MIC of the same compound determined by micro broth dilution. All MIC measurements were performed in duplicate. Aliquots of the 5 × 10^4 cell/ml dilutions for each 1/2MIC well were periodically plated on MHB and incubated at 35°C for 18 h to verify cell density by colony counts and for visual inspection of colony phenotypes. To control compound stability, peptide solution MICs were determined during and at the end of the 15 d and were compared to cells unexposed to antibiotics. In vivo resistance was also assessed in treated mice (1.5 mg.kg^−1) for 4 d (sepsis) or 6 d (skin abscesses). […] The broth microdilution method was performed as per EUCAST recommendations on 5 independent colonies per mouse (3 mice per set, 15 colonies per drug tested). For severe sepsis and subcutaneous abscesses, in vivo resistance was determined by plating aliquots of crude kidney extracts or abscesses on plates containing 1-, 2-, 4-, or 8-fold the peptide MICs 7 or 3 d post infections, respectively.

MSSA (Newman) = assay: microbe, parasite or virus in culture; conditions: Staphylococcus aureus
Description: as §4

MRSA (Mu3) [4] = assay: microbe, parasite or virus in culture; conditions: Staphylococcus aureus, MRSA
Description: as §4

MRSA = assay: Severe sepsis mouse model, survival; type: in vivo; conditions: mice, approximately 2 × 10^9 CFUs MRSA IV; 4 IV doses of 0.5 mg.kg^−1 at 2, 24, 48, 72 h
From the text: Tolerance and toxicity studies were done on male Swiss mice (CD-1 Crl: CD-1 [ICR] IGS; Charles River). These were 7 to 10 weeks old and weighed an average of 37.2 g. All experimental protocols were approved by the Adaptive Therapeutics Animal Care and Use Committee (APAFiS #4508-2016031l15541258 v2). For the sepsis model, we used female Swiss mice (Janvier Labs), 6 to 8 weeks old and weighing approximately 30 g. Experiments were monitored in the ARCHE-BIOSIT animal lab in Rennes, in biological duplicate. We used Groups of 5 mice for the mild and the severe sepsis models with MRSA. Mice were IV inoculated with 150 μl of MRSA suspensions in 0.9% NaCl containing approximately 5 × 10^8 CFUs for the “mild” sepsis and approximately 2 × 10^9 CFUs for the “severe” sepsis, respectively. […] Mice survival was monitored for 4 d (“severe” sepsis) or 14 d (“mild” sepsis), and the statistical significance of difference(s) between the groups was evaluated using the Wilcoxon test. P < 0.05 was considered significant. Two weeks (“mild” sepsis) or 4 d (“severe” sepsis) after inoculation, mice were euthanized with CO2.

S. aureus 33845 = assay: microbe, parasite or virus in culture; conditions: Staphylococcus aureus
Description: as §1
(§5) Supplementary file pbio.3000337.s007.docx: S1 Table Antibacterial activity of the 4 peptidomimetics focusing on 9 S. aureus MDR clinical isolates. Clinical isolates BCB/POE and 740404 DUN are from human sepsis. The other strains are from catheter infections or suppurating wounds. Brilacidin was used as a control. MDR, multidrug resistant. (DOCX) Click here for additional data file.

S. aureus 66534 E = assay: microbe, parasite or virus in culture; conditions: Staphylococcus aureus
Description: as §1, §5

S. aureus 702697 HOU = assay: microbe, parasite or virus in culture; conditions: Staphylococcus aureus
Description: as §1, §5

S. aureus 740404 DUN = assay: microbe, parasite or virus in culture; conditions: Staphylococcus aureus
Description: as §1, §5

S. aureus BCB/POE = assay: microbe, parasite or virus in culture; conditions: Staphylococcus aureus
Description: as §1, §5

S. aureus COB = assay: microbe, parasite or virus in culture; conditions: Staphylococcus aureus
Description: as §1, §5

S. aureus FORT = assay: microbe, parasite or virus in culture; conditions: Staphylococcus aureus
Description: as §1, §5

S. aureus PM64 = assay: microbe, parasite or virus in culture; conditions: Staphylococcus aureus, PM64
Description: as §1, §5

S. aureus ROUS = assay: microbe, parasite or virus in culture; conditions: Staphylococcus aureus
Description: as §1, §5

Escherichia coli 13090 = test system: Escherichia coli 13090
Description: as §1

Escherichia coli K12 = conditions: E. coli K12
Description: as §1

Escherichia coli ML35P = conditions: E. coli ML35P
Description: as §1

P. aeruginosa 15643 = test system: P. aeruginosa 15643
Description: as §1

P. aeruginosa PA14 = conditions: P. aeruginosa PA14
Description: as §1

P. aeruginosa LESB58 [5] = conditions: P. aeruginosa strain LESB58; biological triplicates
Description: as §1, with “μM.” for “μM. The bacterial inoculum (5 × 10^5 colony-forming units [CFUs]/well) was prepared in MHB or CAMHB (150 μl). A Biotek Synergy 2 spectrophotometer was used to record the results after 18–20 h incubation at 35°C (±2°C).”, “Phosphate-buffered saline (PBS)-exposed S. aureus MRSA was included as a control.” left out
For 15 d in MHB, MICs were determined daily for each pseudopeptide and their antibiotic controls. […] The suspension was diluted in MHB or CAMHB (10^6 cells/ml) and then used to determine the MIC of the same compound determined by micro broth dilution. […] To control compound stability, peptide solution MICs were determined during and at the end of the 15 d and were compared to cells unexposed to antibiotics. In vivo resistance was also assessed in treated mice (1.5 mg.kg^−1) for 4 d (sepsis) or 6 d (skin abscesses). […]

P. aeruginosa LESB58 [6] = assay: Cutaneous abscess mouse model (CFU); type: in vivo, mice; conditions: mice, P. aeruginosa LESB58; 9 mg.kg^−1 subcutaneous multiple doses; day 3
Description: as §3

[7] = broth microdilution, 3 independent experiments

CCCCCCCCCC(=O)N[C@@H](Cc1c[nH]c2ccccc12)C(=O)N[C@H](CC(N)=O)C(=O)N[C@@H](CC(=O)O)C(=O)N[C@@H]1C(=O)NCC(=O)N[C@@H](CCCN)C(=O)N[C@@H](CC(=O)O)C(=O)N[C@H](C)C(=O)N[C@@H](CC(=O)O)C(=O)NCC(=O)N[C@H](CO)C(=O)N[C@@H]([C@H](C)CC(=O)O)C(=O)N[C@@H](CC(=O)c2ccccc2N)C(=O)O[C@@H]1C [Daptomycin, daptomycin, reference compound]
MIC (S. aureus Mu3 (MRSA); Mu3): 0.5 (1) μM
MIC (S. aureus Newman; Newman): 0.25 (0.5) μM
MIC (E. faecium Aus0004): 0.5 (1) μM
half-life [1]: 52.3 ± 6.67 h
half-life [2]: > 58.3 h

CN[C@H](CC(C)C)C(=O)N[C@H]1C(=O)N[C@@H](CC(N)=O)C(=O)N[C@H]2C(=O)N[C@H]3C(=O)N[C@H](C(=O)N[C@H](C(=O)O)c4cc(O)cc(O)c4-c4cc3ccc4O)[C@H](O)c3ccc(c(Cl)c3)Oc3cc2cc(c3O[C@@H]2O[C@H](CO)[C@@H](O)[C@H](O)[C@H]2O[C@H]2C[C@](C)(N)[C@H](O)[C@H](C)O2)Oc2ccc(cc2Cl)[C@H]1O [Vanco]
Area of dermonecrosis (S. aureus MRSA): 88.6 mm2 and 44.4 mm2 and 88.5 mm2 and 82.8 mm2 and 67.1 mm2 and 13 mm2 and 197.8 mm2 and 164.7 mm2 and 166.7 mm2 and 90 mm2
Intracellular ATP level, 'normal growing' (S. aureus; 'normal growing' colonies from MRSA abscesses of mice treated IV with 1.5 mg.kg-1): 122379 AU and 119801 AU and 111813 AU and 113023 AU and 103234 AU
Intracellular ATP level, SCV (S. aureus; SCV from MRSA abscesses of mice treated IV with 1.5 mg.kg-1): 20326.9 AU and 5706.67 AU and 6923.08 AU and 10333.3 AU and 15090.9 AU

CN[C@H](CC(C)C)C(=O)N[C@H]1C(=O)N[C@@H](CC(N)=O)C(=O)N[C@H]2C(=O)N[C@H]3C(=O)N[C@H](C(=O)N[C@H](C(=O)O)c4cc(O)cc(O)c4-c4cc3ccc4O)[C@H](O)c3ccc(c(Cl)c3)Oc3cc2cc(c3O[C@@H]2O[C@H](CO)[C@@H](O)[C@H](O)[C@H]2O[C@H]2C[C@](C)(N)[C@H](O)[C@H](C)O2)Oc2ccc(cc2Cl)[C@H]1O [Vancomycin, vancomycin]
MIC (S. aureus Mu3 (MRSA); Staphylococcus aureus, MRSA): 1 µM
MIC (S. aureus N315 (MRSA)): 2 µM
MIC (S. aureus Newman; Staphylococcus aureus, NEWMAN): 0.5 µM
MIC (MRSA (Mu3) [3]; MRSA (Mu3), d14 of serial passages at sub-MIC): 1 (1.4) μM
MIC (MRSA (Mu3) [3]; Staphylococcus aureus, MRSA): 1 µM (≈ 1.45 µg/mL)
MIC (MSSA (Newman); MSSA (Newman), d0 of serial passages): 0.5 µM (≈ 0.725 µg/mL)
MIC (MSSA (Newman); MSSA|NEWMAN, d14 of serial passages at sub-MIC): 1 µM (≈ 1.45 µg/mL)
MIC (MRSA (Mu3) [4]): 1 µM (≈ 1.45 µg/mL)
MIC (MRSA (Mu3) [4]; 24 h): 1 µM (≈ 1.45 µg/mL)
Survival in severe sepsis (MRSA): much less effective

N=C(N)NCCCCC(=O)Nc1cc(C(F)(F)F)cc(NC(=O)c2cc(C(=O)Nc3cc(C(F)(F)F)cc(NC(=O)CCCCNC(=N)N)c3O[C@@H]3CCNC3)ncn2)c1O[C@@H]1CCNC1 [brilacidin, reference compound]
MIC (S. aureus 33845): 1 mg/L
MIC (S. aureus 66534 E): 1 mg/L
MIC (S. aureus 702697 HOU): 1 mg/L
MIC (S. aureus 740404 DUN): 1 mg/L
MIC (S. aureus BCB/POE): 1 mg/L
MIC (S. aureus COB): 1 mg/L
MIC (S. aureus FORT): 1 mg/L
MIC (S. aureus PM64): 1 mg/L
MIC (S. aureus ROUS): 1 mg/L
Survival in severe sepsis (MRSA): cured the infected animals

colistin
MBC/MIC (Escherichia coli 13090; E. coli 13090): 1
MIC (Escherichia coli 13090; E. coli 13090, clinical strain, Caen hemoculture, broth microdilution, 3 independent experiments): 1 (1.3) μM
MBC/MIC (Escherichia coli K12): 1
MIC (Escherichia coli K12; [7]): 0.5 (0.65) μM
MBC/MIC (Escherichia coli ML35P): 1
MIC (Escherichia coli ML35P; [7]): 0.5 (0.65) μM
MBC/MIC (P. aeruginosa 15643; P. aeruginosa 15643): 2
MIC (P. aeruginosa 15643; P. aeruginosa 15643, clinical strain, Caen hemoculture, broth microdilution, 3 independent experiments): 0.5 (0.65) μM
MBC/MIC (P. aeruginosa PA14): 2
MIC (P. aeruginosa PA14; [7]): 0.5 (0.65) μM
MIC (P. aeruginosa LESB58 [5]): 1 µM
Number of bacteria in abscess (P. aeruginosa LESB58 [6]): lowered the number of bacteria
